The record followed here is patent US20260001928A1 (CORTERIA PHARMACEUTICALS, priority 2022, published 2026).

*1 amine or outer side, *2 acyl side, *3 side chain or, on linkers, in order; H or OH if unused. Where a SMILES comes first, the peptide text is derived from it. Side-chain parts run from the residue outwards. [ ]: non-standard residue; d: D form. The star is where a group is joined. γGlu = O=C(O)[C@H](CCC(=O)[*:2])N[*:1]; C14 diacid = O=C(O)CCCCCCCCCCCCC(=O)*; C12 diacid = O=C(O)CCCCCCCCCCC(=O)*; Api = NC1(C(=O)O)CCNCC1; Pentanoyl = CCCCC(=O)*; AEEA = NCCOCCOCC(=O)O; Aib = CC(C)(N)C(=O)O Bounds are passed on as bounds.

The target in one assay is T1, human CRF2a receptor (Homo sapiens, UniProt Q13324).
T1 construct: expressed in transfected cells; host or cells: TeloHEAC cells
T1 sequence (Q13324 1-411): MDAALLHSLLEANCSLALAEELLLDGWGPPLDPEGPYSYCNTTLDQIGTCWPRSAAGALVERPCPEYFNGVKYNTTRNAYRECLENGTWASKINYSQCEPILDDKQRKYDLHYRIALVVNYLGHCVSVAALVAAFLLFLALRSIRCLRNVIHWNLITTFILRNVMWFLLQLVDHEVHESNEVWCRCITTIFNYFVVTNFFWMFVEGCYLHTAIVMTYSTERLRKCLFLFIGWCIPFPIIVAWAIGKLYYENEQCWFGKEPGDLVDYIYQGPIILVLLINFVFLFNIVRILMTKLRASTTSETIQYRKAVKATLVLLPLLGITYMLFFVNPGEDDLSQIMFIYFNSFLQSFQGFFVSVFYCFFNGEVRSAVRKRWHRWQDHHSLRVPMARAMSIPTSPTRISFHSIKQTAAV
Nature of the assay: Activity at human CRF2a receptor, cAMP functional assay in TeloHEAC cells. The assay is classed as cell-based. The conditions noted are these: TeloHEAC cells stably expressing human CRF2a receptor, relative to urocortin 2 (100 nM = 100%). Put shortly: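 TeloHEAC cells stably expressing human CRF2a (10000 cells/well) were treated with 16-point 1:2 compound dilutions in HBSS/20 mM HEPES with IBMX for 30 min at 37° C. cAMP was read by HTRF (665/620 nm ratio). EC50 was the concentration giving 50% activation, with 100 nM urocortin 2 set as 100%.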

Another assay addresses T2, CFR1R receptor (Homo sapiens, UniProt P34998).
T2 construct: host or cells: CHO-K1 (clone 2)
T2 sequence (P34998 24-415): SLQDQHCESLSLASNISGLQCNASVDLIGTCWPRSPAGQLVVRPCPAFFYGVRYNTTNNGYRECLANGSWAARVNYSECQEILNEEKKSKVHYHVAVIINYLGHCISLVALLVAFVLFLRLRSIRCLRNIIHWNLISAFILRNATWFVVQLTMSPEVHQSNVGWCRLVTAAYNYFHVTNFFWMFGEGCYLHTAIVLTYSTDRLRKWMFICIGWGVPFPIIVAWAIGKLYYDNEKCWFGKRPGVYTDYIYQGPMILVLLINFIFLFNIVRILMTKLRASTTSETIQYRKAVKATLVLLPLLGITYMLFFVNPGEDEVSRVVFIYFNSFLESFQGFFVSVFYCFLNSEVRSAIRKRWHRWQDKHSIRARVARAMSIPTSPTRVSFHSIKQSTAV
Nature of the assay: Activity at anti-target CFR1R receptor, cAMP assay in CRF1R-overexpression CHO-K1 cells. The conditions noted are these: 100% = Sauvagine at 100 nM; for EC50: cAMP. In kind it is cell-based. Put shortly:
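The method mirrors that used with TeloHAEC cells. Here, thawed clone 2 cells seeded at 4000 cells/well are tested, and 100 nM Sauvagine sets the top of the activation scale.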

In the case of `CCCCC(=O)N[C@H](C(=O)N[C@@H](CC(C)C)C(=O)N[C@@H](CO)C(=O)N[C@@H](CC(C)C)C(=O)N[C@@H](CC(=O)O)C(=O)N[C@@H](C(=O)N1CCC[C@H]1C(=O)N[C@H](C(=O)N[C@@H](CCCCN)C(=O)N[C@@H](CC(C)C)C(=O)N[C@@H](CCCCNC(=O)COCCOCCNC(=O)COCCOCCNC(=O)CC[C@H](NC(=O)CC[C@H](NC(=O)CCCCCCCCCCCCC(=O)O)C(=O)O)C(=O)O)C(=O)N[C@@H](CCCCN)C(=O)N[C@H](C(=O)N[C@@H](CC(C)C)C(=O)N[C@@H](CC(C)C)C(=O)N[C@@H](CCC(=O)O)C(=O)N[C@@H](CCC(N)=O)C(=O)N[C@@H](CCC(=O)O)C(=O)N[C@@H](CCCCN)C(=O)N[C@@H](CCC(N)=O)C(=O)N[C@@H](CCCCN)C(=O)N[C@@H](CCCCN)C(=O)N[C@@H](CCC(N)=O)C(=O)N[C@@H](CCCNC(=N)N)C(=O)N[C@@H](CCC(=O)O)C(=O)N[C@@H](CCC(N)=O)C(=O)N[C@@H](C)C(=O)N[C@@H](CCC(=O)O)C(=O)N[C@H](C(=O)N[C@@H](CC(N)=O)C(=O)NC(C)(C)C(=O)N[C@@H](CCC(N)=O)C(=O)N[C@H](C(=O)N[C@@H](CC(C)C)C(=O)N[C@@H](C)C(=O)N[C@@H](CCC(N)=O)C(=O)N[C@H](C(N)=O)C(C)C)[C@@H](C)CC)[C@@H](C)O)[C@@H](C)CC)[C@@H](C)CC)C(C)C)C(C)C` [compound 181] (Pentanoyl-VLSLD[dV]PIKLK([AEEA-AEEA-γGlu-γGlu-C14 diacid])KILLEQEKQKKQREQAETN[Aib]QILAQV-NH2), at human CRF2a receptor, the midpoint of the response, the EC50, lay at 24.7 nM. On CFR1R receptor, the “Emax (% I)” value amounted to 9 % I and the EC50 – broadly, the midpoint of the concentration-response curve – is over 250 nM.

As for `CC[C@H](C)[C@H](NC(C)=O)C(=O)N[C@H](C(=O)N[C@@H](CC(C)C)C(=O)N[C@@H](CO)C(=O)N[C@@H](CC(C)C)C(=O)N[C@@H](CC(=O)O)C(=O)N[C@@H](C(=O)N1CCC[C@H]1C(=O)N[C@H](C(=O)N[C@@H](CCCCN)C(=O)N[C@@H](CC(C)C)C(=O)N[C@@H](CCCCNC(=O)CC[C@H](NC(=O)CCCCCCCCCCC(=O)O)C(=O)O)C(=O)N[C@@H](CCCCN)C(=O)N[C@H](C(=O)N[C@@H](CC(C)C)C(=O)N[C@@H](CC(C)C)C(=O)N[C@@H](CCC(=O)O)C(=O)N[C@@H](CCC(N)=O)C(=O)N[C@@H](CCC(=O)O)C(=O)N[C@@H](CCCCN)C(=O)N[C@@H](CCC(N)=O)C(=O)N[C@@H](CCCCN)C(=O)N[C@@H](CCCCN)C(=O)N[C@@H](CCC(N)=O)C(=O)N[C@@H](CCCNC(=N)N)C(=O)N[C@@H](CCC(=O)O)C(=O)N[C@@H](CCC(N)=O)C(=O)N[C@@H](C)C(=O)N[C@@H](CCC(=O)O)C(=O)N[C@H](C(=O)N[C@@H](CC(N)=O)C(=O)NC(C)(C)C(=O)N[C@@H](CCC(N)=O)C(=O)N[C@H](C(=O)N[C@@H](CC(C)C)C(=O)N[C@@H](C)C(=O)N[C@@H](CCC(N)=O)C(=O)N[C@H](C(N)=O)C(C)C)[C@@H](C)CC)[C@@H](C)O)[C@@H](C)CC)[C@@H](C)CC)C(C)C)C(C)C` [compound 182] (Ac-IVLSLD[dV]PIKLK([γGlu-C12 diacid])KILLEQEKQKKQREQAETN[Aib]QILAQV-NH2), on human CRF2a receptor, the half-maximal effective concentration (EC50) amounted to 1.88 nM. On CFR1R receptor, the “Emax (% I)” value stood at 1 % I and the EC50 was over 250 nM.

Consider `CC[C@H](C)[C@H](NC(C)=O)C(=O)N[C@H](C(=O)N[C@@H](CC(C)C)C(=O)N[C@@H](CO)C(=O)N[C@@H](CC(C)C)C(=O)N[C@@H](CC(=O)O)C(=O)N[C@@H](C(=O)N1CCC[C@H]1C(=O)N[C@H](C(=O)N[C@@H](CCCCN)C(=O)N[C@@H](CC(C)C)C(=O)N[C@@H](CCCCNC(=O)CC[C@H](NC(=O)CCCCCCCCCCC(=O)O)C(=O)O)C(=O)N[C@@H](CCCCN)C(=O)N[C@H](C(=O)N[C@@H](CC(C)C)C(=O)N[C@@H](CC(C)C)C(=O)N[C@@H](CCC(=O)O)C(=O)N[C@@H](CCC(N)=O)C(=O)N[C@@H](CCC(=O)O)C(=O)N[C@@H](CCCCN)C(=O)N[C@@H](CCC(N)=O)C(=O)N[C@@H](CCCCN)C(=O)N[C@@H](CCCCN)C(=O)N[C@@H](CCC(N)=O)C(=O)N[C@@H](CCCNC(=N)N)C(=O)N[C@@H](CCC(=O)O)C(=O)N[C@@H](CCC(N)=O)C(=O)N[C@@H](C)C(=O)N[C@@H](CCC(=O)O)C(=O)N[C@H](C(=O)N[C@@H](CC(N)=O)C(=O)NC1(C(=O)N[C@@H](CCC(N)=O)C(=O)N[C@H](C(=O)N[C@@H](CC(C)C)C(=O)N[C@@H](C)C(=O)N[C@@H](CCC(N)=O)C(=O)N[C@H](C(N)=O)C(C)C)[C@@H](C)CC)CCNCC1)[C@@H](C)O)[C@@H](C)CC)[C@@H](C)CC)C(C)C)C(C)C` [compound 183] (Ac-IVLSLD[dV]PIKLK([γGlu-C12 diacid])KILLEQEKQKKQREQAETN[Api]QILAQV-NH2), for which the response at human CRF2a receptor was half-maximal at 2.47 nM (EC50). For the same compound, on CFR1R receptor, the “Emax (% I)” value is recorded as 11 % I and the half-maximal effective concentration (EC50) is over 250 nM.

On human CRF2a receptor, `CC[C@H](C)[C@H](NC(C)=O)C(=O)N[C@H](C(=O)N[C@@H](CC(C)C)C(=O)N[C@@H](CO)C(=O)N[C@@H](CC(C)C)C(=O)N[C@@H](CC(=O)O)C(=O)N[C@@H](C(=O)N1CCC[C@H]1C(=O)N[C@H](C(=O)N[C@@H](CCCCN)C(=O)N[C@@H](CC(C)C)C(=O)N[C@@H](CCCCNC(=O)CC[C@H](NC(=O)CCCCCCCCCCC(=O)O)C(=O)O)C(=O)N[C@@H](CCCCN)C(=O)N[C@H](C(=O)N[C@@H](CC(C)C)C(=O)N[C@@H](CC(C)C)C(=O)N[C@@H](CCC(=O)O)C(=O)N[C@@H](CCC(N)=O)C(=O)N[C@@H](CCC(=O)O)C(=O)N[C@@H](CCCCN)C(=O)N[C@@H](CCC(N)=O)C(=O)N[C@@H](CCCCN)C(=O)NC(C)(C)C(=O)N[C@@H](CCC(N)=O)C(=O)N[C@@H](CCCNC(=N)N)C(=O)N[C@@H](CCC(=O)O)C(=O)N[C@@H](CCC(N)=O)C(=O)N[C@@H](C)C(=O)N[C@@H](CCC(=O)O)C(=O)N[C@H](C(=O)N[C@@H](CC(N)=O)C(=O)NC1(C(=O)N[C@@H](CCC(N)=O)C(=O)N[C@H](C(=O)N[C@@H](CC(C)C)C(=O)N[C@@H](C)C(=O)N[C@@H](CCC(N)=O)C(=O)N[C@H](C(N)=O)C(C)C)[C@@H](C)CC)CCNCC1)[C@@H](C)O)[C@@H](C)CC)[C@@H](C)CC)C(C)C)C(C)C` [compound 184] (Ac-IVLSLD[dV]PIKLK([γGlu-C12 diacid])KILLEQEKQK[Aib]QREQAETN[Api]QILAQV-NH2) showed an EC50 of 4.25 nM. For the same compound, at CFR1R receptor, the “Emax (% I)” value was determined as 3 % I and the EC50 was over 250 nM.

For the compound `CCCCC(=O)N[C@H](C(=O)N[C@@H](CC(C)C)C(=O)N[C@@H](CO)C(=O)N[C@@H](CC(C)C)C(=O)N[C@@H](CC(=O)O)C(=O)N[C@@H](C(=O)N1CCC[C@H]1C(=O)N[C@H](C(=O)N[C@@H](CCCCN)C(=O)N[C@@H](CC(C)C)C(=O)N[C@@H](CCCCNC(=O)CC[C@H](NC(=O)CCCCCCCCCCC(=O)O)C(=O)O)C(=O)N[C@@H](CCCCN)C(=O)N[C@H](C(=O)N[C@@H](CC(C)C)C(=O)N[C@@H](CC(C)C)C(=O)N[C@@H](CCC(=O)O)C(=O)N[C@@H](CCC(N)=O)C(=O)N[C@@H](CCC(=O)O)C(=O)N[C@@H](CCCCN)C(=O)N[C@@H](CCC(N)=O)C(=O)N[C@@H](CCCCN)C(=O)N[C@@H](CCCCN)C(=O)N[C@@H](CCC(N)=O)C(=O)N[C@@H](CCCNC(=N)N)C(=O)N[C@@H](CCC(=O)O)C(=O)N[C@@H](CCC(N)=O)C(=O)N[C@@H](C)C(=O)N[C@@H](CCC(=O)O)C(=O)N[C@H](C(=O)N[C@@H](CC(N)=O)C(=O)NC(C)(C)C(=O)N[C@@H](CCC(N)=O)C(=O)N[C@H](C(=O)N[C@@H](CC(C)C)C(=O)N[C@@H](C)C(=O)N[C@@H](CCC(N)=O)C(=O)N[C@H](C(N)=O)C(C)C)[C@@H](C)CC)[C@@H](C)O)[C@@H](C)CC)[C@@H](C)CC)C(C)C)C(C)C` [compound 185] (Pentanoyl-VLSLD[dV]PIKLK([γGlu-C12 diacid])KILLEQEKQKKQREQAETN[Aib]QILAQV-NH2), at human CRF2a receptor, a half-maximal response (EC50) required 3.54 nM. Besides, at CFR1R receptor, the “Emax (% I)” value is on record as 2 % I and the concentration giving a half-maximal response (EC50) is over 250 nM.
